Measurements reported in US5668165A, “Small molecule inhibition of RNA/ligand binding” (Scriptgen Pharmaceuticals, Inc., priority 1995, dated 1997).
Entries after “also recorded” stand apart in the source; their conditions may differ. Read-outs that look alike come from different tables or passages of the source. Starred links: 1 amine or outer side, 2 acyl side, 3 side chain; linkers in the order of their positions; H or OH if unused. Positions of bridges follow the written chain, without caps; N, C: chain ends. Non-standard residues stand in square brackets, D forms with d. Residues, ends and D or L forms follow the SMILES beside them. *: point of attachment. X1 = NC1=N[C@@H]([C@H](N[*:1])C(=O)[*:2])C[C@H](O)N1; ΔAla(Z-3-ureido) = NC(=O)N/C=C(\N)C(=O)O; β3hOrn = NCCC[C@H](N)CC(=O)*; Dap = NC[C@H](N)C(=O)O

Legend:
[1] = molecular target: T1, binding of HIV Rev protein to the HIV RRE (Human immunodeficiency virus type 1 group M subtype B, UniProt P04618); experiment: Rev-RRE nitrocellulose filter-binding assay; details: for IC50: read-out: IC50 against Rev/RRE binding
T1 construct: made in house; host or cells: E. coli
T1 sequence (P04618 whole entry, looked up): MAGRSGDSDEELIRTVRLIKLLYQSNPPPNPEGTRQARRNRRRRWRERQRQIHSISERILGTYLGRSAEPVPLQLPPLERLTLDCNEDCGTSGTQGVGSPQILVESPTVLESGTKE
Protocol: A 69-nt ^32 P-labelled RNA probe containing a high affinity Rev-binding site (Bartel et al., Cell 67:529, 1991 ) was incubated with purified E. coli-derived Rev protein in the absence and presence of increasing concentrations of Compound 15. Reactions conditions were those that maximize the specificity of the interaction between Rev and the RRE, i.e., 150 mM KCl and a 100-fold molar excess of tRNA.
After a 30-minute incubation at room temperature, a nitrocellulose filter-binding assay was performed to quantify the binding of Rev to the RRE (Daly et al., Biochem. 32:10497, 1993). In this assay, RNA is retained on the filter only by virtue of binding to Rev. Filter-associated radioactivity was quantified in a Wallac Microbeta counter. The fraction of input RNA retained on the filter was plotted as a function of Compound 15 concentration, and the IC50 (the concentration required to inhibit 50% Rev-RRE binding) was determined by linear regression.

[2] = system: binding of Rev to the RRE (67-nt RNA probe containing a high affinity Rev-binding site); parameters: species or system HIV; details: for concentration at which inhibitory to Rev binding: third group of aminoglycosides; for inhibiting the binding of Rev to the RRE: Rev/RRE binding inhibition assay, summary of thirteen 2-DOS aminoglycosides; for ability to inhibit Rev binding (inhibitory at any concentration tested): 67-nt 32P-labeled RNA probe, gel mobility shift
Protocol: To test whether antibiotics can block binding of Rev to the RRE, a 67-nt ^32 P-labeled RNA probe containing a high affinity Rev-binding site was incubated with purified E. coli derived Rev protein in the presence of various antibiotics. Binding of Rev to the RNA probe was quanitified by an RNA gel mobility shift assay.

[3] = Table 2, 2,5-Bis(3-amidinophenyl)furans
[4] = Table 3, 2,5-Bis(3-bisamidinophenyl)thiophene

`c1cc(C2=NCCN2)cc(-c2ccc(-c3cccc(C4=NCCN4)c3)o2)c1` [Example 19, 2,5-Bis(3-imidazolinophenyl)furan] showed an IC50 [1, 3] of 4000 nM.

For `CN[C@@H]1[C@@H](O)[C@@H](O[C@@H]2[C@@H](O)[C@H](O[C@H]3OC(CN)=CC[C@H]3N)[C@@H](N)C[C@H]2N)OC[C@]1(C)O` [sisomicin], the “concentration at which inhibitory to Rev binding” value (“concentration at which inhibitory” below) ([2]; 67-nt RNA probe) was 100 μm and the “inhibiting the binding of Rev to the RRE” value [2] was “effective”.

In the case of `O=C(N[C@H](CO)[C@H](O)c1ccc([N+](=O)[O-])cc1)C(Cl)Cl` [chloramphenicol], the “ability to inhibit Rev binding (inhibitory at any concentration tested)” value (shortened to “ability to inhibit Rev binding”) [2] is reported as “no”.

`CN(C)CCCCNC(=N)c1cccc(-c2ccc(-c3cccc(C(=N)NCCCCN(C)C)c3)o2)c1` [Example 17, 2,5-Bis[3-(4-N,N-dimethylaminobutyl-amidino)phenyl]furan] gave an IC50 [1, 3] of 1700 nM.

With `CCC[C@@H]1C[C@@H](C(=O)N[C@@H]([C@H]2O[C@H](SC)[C@H](O)[C@@H](O)[C@H]2O)[C@H](C)Cl)N(C)C1` [clindamycin A] the “ability to inhibit Rev binding” value [2] was “no”.

With `NC[C@H]1O[C@H](O[C@H]2[C@H](O)[C@@H](O)[C@H](N)C[C@@H]2N)[C@H](N)[C@@H](O)[C@@H]1O` [neamine] the “concentration at which inhibitory” value ([2]; 67-nt RNA probe) was 100 μm and the “inhibiting the binding of Rev to the RRE” value [2] was “effective”.

In the case of `NCC[C@H](O)C(=O)N[C@@H]1C[C@H](N)[C@@H](O[C@H]2O[C@H](CN)[C@@H](O)[C@H](O)[C@H]2O)[C@H](O)[C@H]1O[C@H]1O[C@H](CO)[C@@H](O)[C@H](N)[C@H]1O` [amikacin], the “concentration at which inhibitory” value ([2]; 67-nt RNA probe) is reported as 100 μm and the “inhibiting the binding of Rev to the RRE” value [2] is reported as “effective”.

gentamicin C was tested, and the “concentration at which inhibitory” value ([2]; 67-nt RNA probe) was 100 μm and the “inhibiting the binding of Rev to the RRE” value [2] was “effective”.

In the case of `CN(C)CCCCCCNC(=N)c1cccc(-c2ccc(-c3cccc(C(=N)NCCCCCCN(C)C)c3)o2)c1` [Example 18, 2,5-Bis[3-(6-N,N-dimethylaminohexylamidino)phenyl]furan], the IC50 [1, 3] is reported as 3900 nM.

For `CC1(C)S[C@@H]2[C@H](NC(=O)[C@H](N)c3ccccc3)C(=O)N2[C@H]1C(=O)O` [ampicilin], the “ability to inhibit Rev binding” value [2] was “no”.

With chromomycin A the “ability to inhibit Rev binding” value [2] was “no”.

`CC1CCCCN1CCCNC(=N)c1cccc(-c2ccc(-c3cccc(C(=N)NCCCN4CCCCC4C)c3)s2)c1` (stereo not shown) [Example 25, 2,5-Bis{3-[3-(2-methylpiperidino)-propylamidino]phenyl}thiophene] was tested, and the IC50 [1, 4] was 4000 nM.

`NCCC[C@H](N)CC(=O)N[C@H]1CNC(=O)[C@H]([C@H]2C[C@H](O)NC(N)=N2)NC(=O)/C(=C/NC(N)=O)NC(=O)[C@H](CO)NC(=O)[C@H](CO)NC1=O` [viomycin] (β3hOrn-[Dap]SS[ΔAla(Z-3-ureido)][X1]; lactam 1-C) was tested, and the “ability to inhibit Rev binding” value [2] was “no”.

`CCC[C@@H]1C[C@@H](C(=O)N[C@@H]([C@H]2O[C@H](SC)[C@H](O)[C@@H](O)[C@H]2O)[C@@H](C)O)N(C)C1` [lincomycin] was tested, and the “ability to inhibit Rev binding” value [2] was “no”.

With `NC[C@@H]1O[C@H](O[C@H]2[C@@H](O)[C@H](O[C@@H]3[C@@H](O)[C@H](N)C[C@H](N)[C@H]3O[C@H]3O[C@H](CO)[C@@H](O)C[C@H]3N)O[C@@H]2CO)[C@H](N)[C@@H](O)[C@@H]1O[C@H]1O[C@H](CO)[C@@H](O)[C@H](O)[C@@H]1O` [lividomycin A] the “ability to inhibit Rev binding” value [2] was “significant inhibitory ability”, the “concentration that achieves inhibition of Rev binding” value ([2]; 67-nt RNA probe, neomycin B: complete inhibition) was 10 µM and the “inhibiting the binding of Rev to the RRE” value [2] was “exceptional inhibitory potential”.

With `CC1(C)S[C@@H]2[C@H](NC(=O)C(C(=O)O)c3ccccc3)C(=O)N2[C@H]1C(=O)O` (stereo partly shown) [carbenicilin] the “ability to inhibit Rev binding” value [2] was “no”.

In the case of `N=C(NCCN1CCCC1)c1cccc(-c2ccc(-c3cccc(C(=N)NCCN4CCCC4)c3)s2)c1` [Example 23, 2,5-Bis[3-(2-pyrrolidinoethylamidino)phenyl]thiophene], the “IC50 against Rev/RRE binding” value [1, 4] is reported as “not active”.

In the case of `N=C(NN1CCOCC1)c1cccc(-c2ccc(-c3cccc(C(=N)NN4CCOCC4)c3)s2)c1` [Example 24, 2,5-Bis[3-(4-morpholinoamidino)phenyl]thiophene], the “IC50 against Rev/RRE binding” value [1, 4] is reported as “not active”.

For thiostreption, the “ability to inhibit Rev binding” value [2] was “no”.

`C[C@H]1O[C@H](O[C@H]2[C@H](O)[C@@H](O)[C@@H](O)[C@H](O)[C@@H]2O)[C@@H](N)C[C@@H]1NC(=N)C(=O)O` [kasugamycin] was tested, and the “ability to inhibit Rev binding” value [2] was “no inhibitory activity at any concentration tested”.

In the case of `NC[C@@H]1O[C@H](O[C@H]2[C@@H](O)[C@H](O[C@@H]3[C@@H](O)[C@H](N)C[C@H](N)[C@H]3O[C@H]3O[C@H](CO)[C@@H](O)[C@H](O)[C@H]3N)O[C@@H]2CO)[C@H](N)[C@@H](O)[C@@H]1O` [paromomycin], the “ability to inhibit Rev binding” value [2] is reported as “no inhibitory activity at any concentration tested; also recorded: completely inactive”.

With olivomycin the “ability to inhibit Rev binding” value [2] was “no”.

For tunicamycin, the “ability to inhibit Rev binding” value [2] was “no”.

For butirosin, the “ability to inhibit Rev binding” value [2] was “no inhibitory activity at any concentration tested”.

`N=C(NCc1cccnc1)c1cccc(-c2ccc(-c3cccc(C(=N)NCc4cccnc4)c3)s2)c1` [Example 20, 2,5-Bis[3-pyridylmethylamidinophenyl]thiophene] was tested, and the “IC50 against Rev/RRE binding” value [1, 4] was “not active”.

For `CN[C@H]1C[C@@H](N)[C@H](O)[C@@H](O[C@@H]2O[C@H](CO)[C@H](O)[C@@H]3OC4(O[C@H]23)O[C@H]([C@@H](N)CO)[C@H](O)[C@H](O)[C@H]4O)[C@@H]1O` (stereo partly shown) [hygromyoin B, hygromycin B], the “ability to inhibit Rev binding” value [2] was “no inhibitory activity at any concentration tested”.

Work on `CCN(CC)CCCNC(=N)c1cccc(-c2ccc(-c3cccc(C(=N)NCCCN(CC)CC)c3)s2)c1` [Example 22, 2,5-Bis-[3-(3-N,N-diethylaminopropyl-amidino)phenyl]thiophene] yielded an IC50 [1, 4] of 2800 nM.

`CC[C@H]1OC(=O)[C@H](C)[C@@H](O[C@H]2C[C@@](C)(OC)[C@@H](O)[C@H](C)O2)[C@H](C)[C@@H](O[C@@H]2O[C@H](C)C[C@H](N(C)C)[C@H]2O)[C@](C)(O)C[C@@H](C)C(=O)[C@H](C)[C@@H](O)[C@]1(C)O` [erythromycin] was tested, and the “ability to inhibit Rev binding” value [2] was “no”.

`CN[C@@H]1[C@H](O[C@H]2[C@H](O[C@H]3[C@H](O)[C@@H](O)[C@H](NC(=N)N)[C@@H](O)[C@@H]3NC(=N)N)O[C@@H](C)[C@]2(O)CO)O[C@@H](CO)[C@H](O)[C@H]1O` [dihydrostreptomycin] was tested, and the “ability to inhibit Rev binding” value [2] was “no inhibitory activity at any concentration tested”.

In the case of `Cn1cc(NC(=O)c2cc(NC(=O)c3cc(NC=O)cn3C)cn2C)cc1C(=O)NCCC(=N)N` [distamycin A], the “ability to inhibit Rev binding” value [2] is reported as “no”.

`CN[C@@H]1[C@H](O)[C@H](NC)[C@H]2O[C@@]3(O)C(=O)C[C@@H](C)O[C@H]3O[C@@H]2[C@H]1O` [specitinomycin] was tested, and the “ability to inhibit Rev binding” value [2] was “no inhibitory activity at any concentration tested” and the “ability to inhibit Rev binding” value ([2]; listed as spectinoymycin) was “inactive”.

In the case of `NC[C@H]1O[C@H](O[C@H]2[C@H](O)[C@@H](O[C@H]3O[C@H](CO)[C@@H](O)[C@H](N)[C@H]3O)[C@H](N)C[C@@H]2N)[C@H](N)[C@@H](O)[C@@H]1O` [kanamycin B], the “concentration at which inhibitory” value ([2]; 67-nt RNA probe) is reported as 100 μm and the “inhibiting the binding of Rev to the RRE” value [2] is reported as “effective”.

For `CCN(CC)CCCNC(=N)c1cccc(-c2ccc(-c3cccc(C(=N)NCCCN(CC)CC)c3)o2)c1` [Example 16, 2,5-Bis[3-N,N-diethylaminopropylamidinophenyl]furan], the IC50 [1, 3] was 750 nM.

`CN1CCCC1CCNC(=N)c1cccc(-c2ccc(-c3cccc(C(=N)NCCC4CCCN4C)c3)s2)c1` (stereo not shown) [Example 21, 2,5-Bis{3-[2-(1-methyl-2-pyrrolidinyl)ethylamidino]phenyl}thiophene] was tested, and the IC50 [1, 4] was 2400 nM.

For `CN(C)[C@@H]1C(=O)C(C(N)=O)=C(O)[C@@]2(O)C(=O)C3=C(O)c4c(O)cccc4[C@@](C)(O)[C@H]3C[C@@H]12` [tetracycline], the “ability to inhibit Rev binding” value [2] was “no”.

capreomycin was tested, and the “ability to inhibit Rev binding” value [2] was “no”.

With `NC[C@H]1O[C@H](O[C@H]2[C@H](O[C@@H]3O[C@H](CO)[C@@H](O)[C@H]3O)[C@@H](O)[C@H](N)C[C@@H]2N)[C@H](N)[C@@H](O)[C@@H]1O` [ribostamycin] the “concentration at which inhibitory” value ([2]; 67-nt RNA probe) was 100 μm and the “inhibiting the binding of Rev to the RRE” value [2] was “effective”.

For vineomycin, the “ability to inhibit Rev binding” value [2] was “no”.

`[H]/N=C(/N)N[C@H]1[C@H](O)[C@@H](O)[C@H](O[C@@H]2O[C@@H](C)[C@](O)(C=O)[C@H]2O[C@@H]2O[C@@H](CO)[C@H](O)[C@@H](O)[C@@H]2NC)[C@@H](N/C(N)=N\[H])[C@@H]1O` [stretomycin, streptomycin] was tested, and the “ability to inhibit Rev binding” value [2] was “no inhibitory activity at any concentration tested” and the “ability to inhibit Rev binding” value ([2]; listed as streptomycin) was “inactive”.
